From PubChem BioAssay (NCI)
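Briefly, cells in 96-well plates were exposed to five compound concentrations for 48 h, and endpoints were estimated by linear interpolation. The concentration for 50% growth inhibition is given as GI50. TGI: total growth inhibition.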

Columns and labels:
Assay in all cases: NCI tumour cell line growth inhibition, 48 h
K-562 leukemia = test system: K-562 leukemia
HOP-62 NSCLC = test system: HOP-62 NSCLC
RPMI-8226 leukemia = test system: RPMI-8226 leukemia
UACC-257 melanoma = test system: UACC-257 melanoma
NCI-H226 lung = test system: NCI-H226 lung
DU-145 prostate = test system: DU-145 prostate
SN12C renal = test system: SN12C renal
UO-31 renal = test system: UO-31 renal
CAKI-1 renal = test system: CAKI-1 renal
SF-268 CNS = test system: SF-268 CNS
SNB-19 CNS = test system: SNB-19 CNS
SK-OV-3 ovarian = test system: SK-OV-3 ovarian
SK-MEL-2 melanoma = test system: SK-MEL-2 melanoma
SK-MEL-5 melanoma = test system: SK-MEL-5 melanoma
SF-539 CNS = test system: SF-539 CNS
HL-60(TB) leukemia = test system: HL-60(TB) leukemia
HS 578T breast = test system: HS 578T breast
MALME-3M melanoma = test system: MALME-3M melanoma
SK-MEL-28 melanoma = test system: SK-MEL-28 melanoma
NCI-H23 lung = test system: NCI-H23 lung
LOX IMVI melanoma = test system: LOX IMVI melanoma
M14 melanoma = test system: M14 melanoma
786-0 renal = test system: 786-0 renal
BT-549 breast = test system: BT-549 breast
RXF 393 renal = test system: RXF 393 renal
NCI-H522 lung = test system: NCI-H522 lung
MCF7 breast = test system: MCF7 breast
SR leukemia = test system: SR leukemia
NCI-H460 lung = test system: NCI-H460 lung
KM12 colon = test system: KM12 colon
HCT-116 colon = test system: HCT-116 colon
NCI/ADR-RES ovarian = test system: NCI/ADR-RES ovarian
PC-3 prostate = test system: PC-3 prostate
OVCAR-8 ovarian = test system: OVCAR-8 ovarian
IGROV1 ovarian = test system: IGROV1 ovarian
MOLT-4 leukemia = test system: MOLT-4 leukemia
T-47D breast = test system: T-47D breast
TK-10 renal = test system: TK-10 renal
HT29 colon = test system: HT29 colon
CCRF-CEM leukemia = test system: CCRF-CEM leukemia
MDA-MB-435 = test system: MDA-MB-435
SF-295 CNS = test system: SF-295 CNS
OVCAR-5 ovarian = test system: OVCAR-5 ovarian
HOP-92 NSCLC = test system: HOP-92 NSCLC
HCC-2998 colon = test system: HCC-2998 colon
U251 CNS = test system: U251 CNS
A549 NSCLC = test system: A549 NSCLC
EKVX NSCLC = test system: EKVX NSCLC
UACC-62 melanoma = test system: UACC-62 melanoma
SNB-75 CNS = test system: SNB-75 CNS
COLO 205 colon = test system: COLO 205 colon
OVCAR-4 ovarian = test system: OVCAR-4 ovarian
OVCAR-3 ovarian = test system: OVCAR-3 ovarian
SW-620 colon = test system: SW-620 colon
A498 renal = test system: A498 renal
ACHN renal = test system: ACHN renal
HCT-15 colon = test system: HCT-15 colon
MDA-MB-231 breast = test system: MDA-MB-231 breast

In the case of `CCCn1cnc2c(c1=N)C(c1ccc(Cl)cc1)c1sc3c(CC)cccc3c1O2` (stereo not given), the GI50 (K-562 leukemia) is reported as 328 nM, the TGI (K-562 leukemia) is reported as 6150 nM and the GI50 (HOP-62 NSCLC) is reported as 563 nM. The TGI (HOP-62 NSCLC) was 8930 nM, the GI50 (RPMI-8226 leukemia) was 471 nM and the TGI (RPMI-8226 leukemia) was 7390 nM. The GI50 (UACC-257 melanoma) was 12200 nM, the TGI (UACC-257 melanoma) was 33700 nM and the GI50 (NCI-H226 lung) was 936 nM. The TGI (NCI-H226 lung) was 10200 nM, the GI50 (DU-145 prostate) was 615 nM and the TGI (DU-145 prostate) was 11400 nM. For the same molecule, the GI50 (SN12C renal) was 1580 nM, the TGI (SN12C renal) was 15000 nM and the GI50 (UO-31 renal) was 712 nM. For the same molecule, the TGI (UO-31 renal) was 18300 nM, the GI50 (CAKI-1 renal) was 361 nM and the TGI (CAKI-1 renal) was 15600 nM. For the same molecule, the GI50 (SF-268 CNS) was 820 nM, the TGI (SF-268 CNS) was 15200 nM and the GI50 (SNB-19 CNS) was 592 nM. For the same molecule, the TGI (SNB-19 CNS) was 15400 nM, the GI50 (SK-OV-3 ovarian) was 670 nM and the TGI (SK-OV-3 ovarian) was 20800 nM. The GI50 (SK-MEL-2 melanoma) was 925 nM, the TGI (SK-MEL-2 melanoma) was 16000 nM and the GI50 (SK-MEL-5 melanoma) was 683 nM. The TGI (SK-MEL-5 melanoma) was 11500 nM, the GI50 (SF-539 CNS) was 410 nM and the TGI (SF-539 CNS) was 1900 nM. It also gave a GI50 (HL-60(TB) leukemia) of 307 nM, a TGI (HL-60(TB) leukemia) of 1660 nM and a GI50 (HS 578T breast) of 434 nM. The TGI (HS 578T breast) was 5640 nM, the GI50 (MALME-3M melanoma) was 722 nM and the TGI (MALME-3M melanoma) was 20300 nM. For the same molecule, the GI50 (SK-MEL-28 melanoma) was 2990 nM, the TGI (SK-MEL-28 melanoma) was 22400 nM and the GI50 (NCI-H23 lung) was 974 nM. The TGI (NCI-H23 lung) was 11300 nM, the GI50 (LOX IMVI melanoma) was 706 nM and the TGI (LOX IMVI melanoma) was 10900 nM. The GI50 (M14 melanoma) was 588 nM, the TGI (M14 melanoma) was 9750 nM and the GI50 (786-0 renal) was 555 nM. The TGI (786-0 renal) was 12900 nM, the GI50 (BT-549 breast) was 1960 nM and the TGI (BT-549 breast) was 16700 nM. It also gave a GI50 (RXF 393 renal) of 273 nM, a TGI (RXF 393 renal) of 1310 nM and a GI50 (NCI-H522 lung) of 407 nM. For the same molecule, the TGI (NCI-H522 lung) was 5530 nM, the GI50 (MCF7 breast) was 354 nM and the TGI (MCF7 breast) was 11700 nM. It also gave a GI50 (SR leukemia) of 342 nM, a TGI (SR leukemia) of 5010 nM and a GI50 (NCI-H460 lung) of 392 nM. The TGI (NCI-H460 lung) was 10400 nM, the GI50 (KM12 colon) was 448 nM and the TGI (KM12 colon) was 13400 nM. It also gave a GI50 (HCT-116 colon) of 446 nM, a TGI (HCT-116 colon) of 10300 nM and a GI50 (NCI/ADR-RES ovarian) of 419 nM. For the same molecule, the TGI (NCI/ADR-RES ovarian) was 2750 nM, the GI50 (PC-3 prostate) was 564 nM and the TGI (PC-3 prostate) was 14700 nM. For the same molecule, the GI50 (OVCAR-8 ovarian) was 1380 nM, the TGI (OVCAR-8 ovarian) was 13400 nM and the GI50 (IGROV1 ovarian) was 607 nM. It also gave a TGI (IGROV1 ovarian) of 11800 nM, a GI50 (MOLT-4 leukemia) of 644 nM and a TGI (MOLT-4 leukemia) of 9250 nM. The GI50 (T-47D breast) was 581 nM, the TGI (T-47D breast) was 14900 nM and the GI50 (TK-10 renal) was 7620 nM. The TGI (TK-10 renal) was 23500 nM, the GI50 (HT29 colon) was 725 nM and the TGI (HT29 colon) was 6130 nM. It also gave a GI50 (CCRF-CEM leukemia) of 370 nM, a GI50 (MDA-MB-435) of 250 nM and a TGI (MDA-MB-435) of 1000 nM. It also gave a GI50 (SF-295 CNS) of 385 nM, a TGI (SF-295 CNS) of 3750 nM and a GI50 (OVCAR-5 ovarian) of 2130 nM. For the same molecule, the TGI (OVCAR-5 ovarian) was 13300 nM, the GI50 (HOP-92 NSCLC) was 1250 nM and the TGI (HOP-92 NSCLC) was 12800 nM. For the same molecule, the GI50 (HCC-2998 colon) was 1750 nM, the TGI (HCC-2998 colon) was 7550 nM and the GI50 (U251 CNS) was 505 nM. It also gave a TGI (U251 CNS) of 10900 nM, a GI50 (A549 NSCLC) of 824 nM and a TGI (A549 NSCLC) of 14200 nM. The GI50 (EKVX NSCLC) was 1120 nM, the TGI (EKVX NSCLC) was 16600 nM and the GI50 (UACC-62 melanoma) was 515 nM. For the same molecule, the TGI (UACC-62 melanoma) was 14500 nM, the GI50 (SNB-75 CNS) was 202 nM and the TGI (SNB-75 CNS) was 878 nM. The GI50 (COLO 205 colon) was 971 nM, the TGI (COLO 205 colon) was 3930 nM and the GI50 (OVCAR-4 ovarian) was 1200 nM. It also gave a TGI (OVCAR-4 ovarian) of 18200 nM, a GI50 (OVCAR-3 ovarian) of 347 nM and a TGI (OVCAR-3 ovarian) of 1780 nM. It also gave a GI50 (SW-620 colon) of 422 nM, a TGI (SW-620 colon) of 12800 nM and a GI50 (A498 renal) of 359 nM. The TGI (A498 renal) was 1830 nM, the GI50 (ACHN renal) was 637 nM and the TGI (ACHN renal) was 17000 nM. For the same molecule, the GI50 (HCT-15 colon) was 497 nM, the TGI (HCT-15 colon) was 10400 nM and the GI50 (MDA-MB-231 breast) was 1950 nM. The TGI (MDA-MB-231 breast) was 13700 nM.
